The numbers were not newly measured in publication PMC7247160, “Inhibitors of DNA Glycosylases as Prospective Drugs” (International Journal of Molecular Sciences, 2020), which cites them from elsewhere.

By Ki is commonly meant the equilibrium dissociation constant of an inhibitor or competing ligand from its target. As a reminder, the Kd is the free concentration of one partner at which half of the binding sites on the other are occupied at equilibrium, for simple one-to-one binding.

The subject of data set [1] is UNG. The following applies: for IC50: UNG, human, read-out: I50.
In data set [2] the test system is Fpg. The settings on record: E. coli.
Data set [3] concerns Fpg. The settings on record: for Fpg inhibition (in words): free damaged base analogs.
In data set [4] the test system is Fpg. More on the design: method as in PMID 25143530. The following applies: Lactococcus lactis, read-out: I50.
Data set [5] addresses UNG.
Data set [6] relates to UNG. This is another data set of the same source.
The next data set has as its system D4/A20 complex. The following applies: UNG (D4), vaccinia virus; read-out: IC50 for DNA polymerase activity in the presence of the D4/A20 complex.
Data set [7] has as its system OGG1. The following applies: OGG1, human; read-out: I50.
The next data set deals with NEIL1. The following applies: NEIL1, human; read-out: I50.
The next data set relates to NEIL2. Set-up: method as in PMID 23138988. The following applies: NEIL2, human; read-out: I50.
In the next data set the test system is NTHL1. More on the design: method as in PMID 23138988. The following applies: NTHL1, human; read-out: I50.
The next data set relates to MPG. Set-up: method as in PMID 25650313. The settings on record: human, read-out: I50.
The next data set has as its system MTH1. The following applies: MTH1, human; read-out: I50.
The test system of data set [8] is OGG1. More on the design: method as in PMID 30442810. The settings on record: OGG1, mouse; read-out: I50.
Data set [9] deals with OGG1. More on the design: method as in PMID 30442810. The settings on record: mouse model.
In another data set the test system is Nei2. More on the design: method as in PMID 28955788. The following applies: Nei2, Mycobacterium tuberculosis.
A further data set has as its target MutY. The following applies: read-out: Kd or Ki directly measured.
For data set [10], the system named is UNG. Set-up: method as in PMID 23400284. The settings on record: species not specified, read-out: I50.
Setting [11] is: read-out: Kd or Ki directly measured.

Where two headings read alike, the source gives them in different places. Bounds are passed on as bounds.

In the case of `O=C(O)c1cccc(/C=N/OCC(CO/N=C/c2cc(=O)[nH]c(=O)[nH]2)CO/N=C/c2cc(=O)[nH]c(=O)[nH]2)c1`, the IC50 with UNG [1] (triskelion inhibitors) was 900 nM.

`O=c1cc(/C=N/OCC(CO/N=C/c2ccc(O)c(O)c2)CO/N=C/c2cc(=O)[nH]c(=O)[nH]2)[nH]c(=O)[nH]1`: the IC50 with UNG [1] (triskelion inhibitors) is 900 nM.

For 2-thioxanthine, the IC50 was 17 µM with Fpg [2] (read-out: I50); 10 to 100 µM with Fpg [3] (oxidizes zinc finger cysteines, not a true inhibitor, read-out: IC50, ability to suppress Fpg activity); 100 µM with Fpg [4].

In the case of `N#C[C@]1(n2ccc(=O)[nH]c2=O)C[C@H](O)[C@@H](COP(=O)(O)OP(=O)(O)OP(=O)(O)O)O1` [1′-cyano-2′-deoxyuridine triphosphate], the Ki result was “nanomolar” on UNG [1] (human UNG, nucleotide incorporated into DNA) and “nanomolar” on UNG [5] (E. coli Ung, nucleotide incorporated into DNA).

For `CN(C=O)c1c(N)nc(N)[nH]c1=O` [2,6-diamino-4-oxo-5-(N-methylformamido)pyrimidine], the “Fpg inhibition (in words)” value in the data set on Fpg [3] is “weakly inhibited”.

Take `Nc1cc(N)c(N=O)c(N)n1` [5-nitroso-2,4,6-triaminopyridine]: the “Fpg inhibition (in words)” value in the data set on Fpg [3] is reported as “weakly inhibited”.

Consider `Nc1cc(=O)[nH]c(N)c1N=O` [5-nitroso-4,6-diamino-2-oxopyridine], for which the “Fpg inhibition (in words)” value with Fpg [3] is reported as “weakly inhibited”.

For the compound `CCCCCCCCc1ccc(Nc2cc(=O)[nH]c(=O)[nH]2)cc1` [C00001 R1 = n-octyl R2 = H, 6-(p-n-octylanilino)uracil], the IC50 was over 300000 nM in the data set with UNG [1]; 8 µM in the data set with UNG [6] (UNG, HSV1, read-out: I50); about 8 µM in the data set with UNG [6] (herpes simplex type 1 UNG, read-out: IC50 for the viral enzyme).

Turning to `O=c1cc(/C=N/OCCCO/N=C/c2cc(O)c(O)cc2Br)[nH]c(=O)[nH]1` [C00002 R = Br], the IC50 in the data set on UNG [1] (bipartite inhibitors) is 40000 nM.

`O=c1cc(/C=N/OCCCO/N=C/c2cc(O)c(O)cc2Cl)[nH]c(=O)[nH]1` [C00002 R = Cl]: the IC50 with UNG [1] (bipartite inhibitors) is 16000 nM.

Take `O=c1cc(/C=N/OCCCO/N=C/c2cc(O)c(O)cc2F)[nH]c(=O)[nH]1` [C00002 R = F]: the IC50 in the data set on UNG [1] (bipartite inhibitors) is 2700 nM.

Turning to `O=c1cc(/C=N/OCCCO/N=C/c2ccc(O)c(O)c2)[nH]c(=O)[nH]1` [C00002 R = H], the IC50 with UNG [1] (bipartite inhibitors) is 1100 nM.

For `O=c1cc(/C=N/OCCCO/N=C/c2cc(O)c(O)cc2[N+](=O)[O-])[nH]c(=O)[nH]1` [C00002 R = NO2], in the data set on UNG [1] (bipartite inhibitors), the IC50 was 40000 nM.

Take `O=c1cc(/C=N/OCCCO/N=C/c2cc(O)c(O)cc2O)[nH]c(=O)[nH]1` [C00002 R = OH]: the IC50 in the data set on UNG [1] (bipartite inhibitors) was 260 nM.

For the compound `O=C(O)c1cccc(C=NOCCON=Cc2cc(=O)[nH]c(=O)[nH]2)c1` [C00003 R1 = C00004 R2 = COOH, R3 = H], in the data set with UNG [1] (bipartite inhibitors), the IC50 was 40000 nM.

Consider `O=C(O)c1cccc(C=NOCCCNCc2cc(=O)[nH]c(=O)[nH]2)c1` [C00003 R1 = C00005 R2 = COOH, R3 = H], for which the IC50 in the data set with UNG [1] (bipartite inhibitors) is 1600 nM.

For the compound `O=C(O)c1cccc(CNCCCON=Cc2cc(=O)[nH]c(=O)[nH]2)c1` [C00003 R1 = C00006 R2 = COOH, R3 = H], the IC50 in the data set with UNG [1] (bipartite inhibitors) is 100000 nM.

In the case of `O=C(O)c1cccc(CNCCCCNCc2cc(=O)[nH]c(=O)[nH]2)c1` [C00003 R1 = C00007 R2 = COOH, R3 = H], the IC50 with UNG [1] (bipartite inhibitors) was 315000 nM.

With `O=C(O)c1ccc(C=NOCCON=Cc2cc(=O)[nH]c(=O)[nH]2)cc1` [C00003 R1 = C00008 R2 = H, R3 = COOH], in the data set with UNG [1] (bipartite inhibitors), the IC50 is 6000 nM.

On to `O=c1cc(/C=N/OCC(CO/N=C/c2ccc(O)c(O)c2)CO/N=C/c2ccc(O)c(O)c2)[nH]c(=O)[nH]1` [C00009 R1 = R2 = 3,4-dihydroxyphenyl], for which the IC50 with UNG [1] (triskelion inhibitors) is 1600 nM.

`O=C(O)c1cccc(/C=N/OCC(CO/N=C/c2cccc(C(=O)O)c2)CO/N=C/c2cc(=O)[nH]c(=O)[nH]2)c1` [C00009 R1 = R2 = 3-carboxyphenyl]: the IC50 in the data set with UNG [1] (triskelion inhibitors) was 1700 nM.

For `Oc1ccc(NCc2ccccc2OCc2ccccc2)cc1` [C00012], in the data set with D4/A20 complex, the IC50 is 5.1 µM.

Consider `NNC(=O)c1sc2cccc(Cl)c2c1Cl` [C00018], for which the IC50 with OGG1 [7] is 220 nM.

In the case of `O=C(NN=C1CCCCC1)c1cc2ccccc2cc1O` [C00022], in the data set on OGG1 [7], the IC50 is 340 nM.

Take `NC(=O)c1cccc(-c2ccc(S(=O)(=O)Nc3ccc4c(c3)N(C(=O)C3CC3)CCC4)cc2)c1` [C00025]: the IC50 with OGG1 [7] is 59 nM.

As for `CCn1cnc2c(Nc3cccc(C)c3)nc(N[C@@H]3CCCC[C@@H]3N)nc21` [C00027], in the data set on NEIL1, the IC50 is 25 µM.

For `Cc1cc(/C=C/C#N)cc(C)c1Nc1nc(Nc2ccc3scnc3c2)c2nc[nH]c2n1` [C00028 R = C00029], in the data set on NEIL1, the IC50 was 4 µM.

On to `Cc1nc2ccc(Nc3nc(Nc4c(C)cc(/C=C/C#N)cc4C)nc4[nH]cnc34)cc2s1` [C00028 R = C00030], for which, in the data set on NEIL1, the IC50 is 7.9 µM.

As for `Cc1cc(/C=C/C#N)cc(C)c1Nc1nc(Nc2ccc3c(c2)CCC3)c2nc[nH]c2n1` [C00028 R = C00031], the IC50 with NEIL1 is 8.9 µM.

In the case of `Cc1cc(/C=C/C#N)cc(C)c1Nc1nc(Nc2ccc3c(c2)OCO3)c2nc[nH]c2n1` [C00028 R = C00032], the IC50 in the data set on NEIL1 is 10 µM.

As for `Nc1c(S(=O)(=O)O)cc(Nc2ccc(Nc3nc(Cl)nc(Nc4ccccc4S(=O)(=O)O)n3)c(S(=O)(=O)O)c2)c2c1C(=O)c1ccccc1C2=O` [Cibacron Blue F3GA], the Ki on Fpg [2] (setting [11]) is 5 nM.

Take `O=C(O)/C=C/C(=O)CC(=O)CC(=O)O` [Fumarylacetoacetate]: the IC50 is 0.006 µM in the data set on NEIL1, 1000 nM with OGG1 [7], 32 nM in the data set with NEIL2 and 1000 nM in the data set with NTHL1.

For `O=c1c(O)c(-c2ccc(O)cc2O)oc2cc(O)cc(O)c12` [Morin], the IC50 with MPG was 2600 nM.

For the compound `Cc1cnc(N)nc1CCCNC(=O)c1cccc(-c2ccc(S(=O)(=O)Nc3ccc4c(c3)N(C(=O)C3CC3)CCC4)cc2)c1` [SU0383], the IC50 in the data set on OGG1 [7] was 490 nM; in the data set on MTH1, 34 nM.

With `O=C(Nc1ccc(I)cc1)N1CCC(n2c(=O)[nH]c3c(Br)cccc32)CC1` [TH5487], the IC50 in the data set with OGG1 [8] was 340 nM. For the same compound, the “Effect on inflammatory response” value in the data set on OGG1 [9] is given as “downregulates the inflammatory response”.

On to `CCCCCc1cc(O)cc2c1Oc1cc(O)cc(C(=O)CCCC)c1C(=O)O2` [norlobaric acid], for which the IC50 with Nei2 (read-out: I50) is 42 µM. Besides, at Nei2 (setting [11]), the Ki is 74 nM.

Regarding `Cc1ccc(C(=O)Nc2ccc(S(=O)(=O)O)c3cc(S(=O)(=O)O)cc(S(=O)(=O)O)c23)cc1NC(=O)c1cccc(NC(=O)Nc2cccc(C(=O)Nc3cc(C(=O)Nc4ccc(S(=O)(=O)O)c5cc(S(=O)(=O)O)cc(S(=O)(=O)O)c45)ccc3C)c2)c1` [suramin], at MutY, the dissociation constant (Kd) is 16 µM.

Take gentamicin: the IC50 with UNG [10] was 1.5 mM; in the data set with UNG [5] (UNG, E. coli, read-out: I50), 420 µM.
